This passage reports IC50, inhibition and CCID50 results from ChEMBL document CHEMBL1133886, “Synthesis of N-alkyl substituted indolocarbazoles as potent inhibitors of human cytomegalovirus replication” (Bioorg Med Chem Lett, 2001).

A word on the IC50: it is the point on the concentration scale where inhibition reaches its midpoint. Low readings indicate greater potency in that assay, high ones weaker potency in that assay. One may read the inhibition as the drop in the measured response relative to a control, in per cent. A lower inhibition goes with a weak effect.

The subject of one experiment is Human betaherpesvirus 5. Kind of experiment: Inhibitory activity against human cytomegalo virus (HCMV) using standard plaque reduction assay. The format is functional, organism-based.
The target of experiment [1] is Protein kinase C (PKC) (Homo sapiens) (UniProt O94806+P41743+P17252+P05129+Q05655+P05771+Q05513+Q02156+P24723+Q15139+Q04759). Kind of experiment: Percent inhibition of protein kinase C at 100 uM. It counts as protein assay.
The next experiment has as its system Vero. The experiment in a line: Compound was evaluated for its cytotoxicity against Vero cell line. It counts as functional, Chlorocebus sabaeus.
Experiment [2] relates to MRC5. The experiment in a line: Inhibitory concentration against 2599R strain of HCMV in MRC5 cells. It counts as functional, cell-based. The note with it: Homo sapiens.
Experiment [3] relates to MRC5. Kind of experiment: Inhibitory concentration against AD169 strain of HCMV in MRC5 cells. The following applies: Homo sapiens. The format is functional, cell-based.
For experiment [4], the system named is MRC5. Kind of experiment: Inhibitory concentration against Xba F strain of HCMV in MRC5 cells. The format is functional, cell-based. The note with it: Homo sapiens.
Experiment [5] has as its system MRC5. Kind of experiment: Inhibitory concentration against Towne strain of HCMV in MRC5 cells. It counts as functional, cell-based. The following applies: Homo sapiens.
Experiment [6] deals with MRC5. The experiment in a line: Inhibitory concentration against Davis strain of HCMV in MRC5 cells. The following applies: Homo sapiens. The format is functional, cell-based.
The subject of experiment [7] is MRC5. Kind of experiment: Inhibitory concentration against Davis HCMV strain of MRC5 cells. It counts as functional, cell-based. The following applies: Homo sapiens.
For experiment [8], the system named is MRC5. The experiment in a line: Inhibitory concentration against Towne HCMV strain of MRC5 cells. It counts as functional, cell-based. The note with it: Homo sapiens.
For experiment [9], the system named is MRC5. Kind of experiment: Inhibitory concentration against AD169 HCMV strain of MRC5 cells. The format is functional, cell-based. The note with it: Homo sapiens.
A further experiment addresses Protein kinase C (PKC). The experiment in a line: Inhibition of protein kinase C. The format is protein assay.
In experiment [10] the test system is MRC5. The experiment in a line: Inhibitory concentration against 2599R HCMV strain of MRC5 cells. The format is functional, cell-based. The note with it: Homo sapiens.
Experiment [11] relates to MRC5. Kind of experiment: Inhibitory concentration against Xba F HCMV strain of MRC5 cells. It counts as functional, cell-based. The note with it: Homo sapiens.
Experiment [12] has as its system MRC5. Kind of experiment: Inhibitory concentration against C8805 HCMV strain of MRC5 cells. The following applies: Homo sapiens. The format is functional, cell-based.

In the experiment with Human betaherpesvirus 5, `CC(C)Cn1c2ccccc2c2c3c(c4c5ccccc5[nH]c4c21)C(=O)NC3=O` had an IC50 of 30 nM. Further, in experiment [1], the inhibition was determined as 71%. Besides, the CCID50 with Vero was less than 8 µM.
On to `O=C1NC(=O)c2c1c1c3ccccc3[nH]c1c1[nH]c3ccccc3c21` [STAUROSPORINE AGLYCON], for which half-maximal inhibition in the experiment on Human betaherpesvirus 5 (IC50) was put at 200 nM. The inhibition in experiment [1] is less than 50%. For the same molecule, the CCID50 with Vero is more than 125 µM.
For `Nc1nc2c(ncn2COC(CO)CO)c(=O)[nH]1` [GANCICLOVIR], the IC50 with Human betaherpesvirus 5 is 3000 nM; in the experiment with MRC5 [2] it was 1600 nM; in the experiment on MRC5 [3], 3000 nM; with MRC5 [4] it was more than 10000 nM; in the experiment on MRC5 [5], 1500 nM; in the experiment with MRC5 [6], 1400 nM. This molecule also yielded a CCID50 in the experiment on Vero of more than 500 µM.
Consider `CCn1c2ccccc2c2c3c(c4c5ccccc5[nH]c4c21)C(=O)NC3=O`, for which the IC50 with MRC5 [7] stood at 30 nM; in the experiment with MRC5 [8] it was 90 nM; in the experiment with Human betaherpesvirus 5 it was 19 nM; with MRC5 [9], 19 nM; at Protein kinase C (PKC) it was 10000 nM; in the experiment on MRC5 [10], 130 nM. For the same molecule, the results for the IC50 in the experiment with MRC5 [11] and with MRC5 [12] were 20 nM and 60 nM, respectively. The CCID50 in the experiment on Vero was more than 125 µM.
As for `CCCn1c2ccccc2c2c3c(c4c5ccccc5[nH]c4c21)C(=O)NC3=O`, the values for the IC50 in the experiment on Human betaherpesvirus 5 and on Protein kinase C (PKC) were 150 nM and 50000 nM, respectively. Further, the CCID50 in the experiment on Vero is less than 8 µM.
In the experiment with Human betaherpesvirus 5, `Cn1c2ccccc2c2c3c(c4c5ccccc5[nH]c4c21)C(=O)NC3=O` gave an IC50 of 60 nM. Moreover, the inhibition in experiment [1] amounted to 47%. In addition, the CCID50 in the experiment with Vero is more than 31 µM.
In experiment [1], `O=C1NC(=O)c2c1c1c3ccccc3[nH]c1c1c2c2ccccc2n1Cc1ccccc1` showed an inhibition of 23%. This molecule also yielded a CCID50 in the experiment with Vero of less than 31 µM.
Take `CC(C)n1c2ccccc2c2c3c(c4c5ccccc5[nH]c4c21)C(=O)NC3=O`: the 50% inhibitory concentration (IC50) with Human betaherpesvirus 5 worked out at 100 nM; at Protein kinase C (PKC), 50000 nM. In the experiment on Vero, the CCID50 is 28 µM.
Regarding `O=C1NC(=O)c2c1c1c3ccccc3[nH]c1c1c2c2ccccc2n1CC(F)(F)F`, the IC50 turned out to be 70 nM in the experiment on Human betaherpesvirus 5 and 25000 nM against Protein kinase C (PKC). In the experiment on Vero, the CCID50 was less than 8 µM.
